The source of these data is US8580821B2, “Serotonin transporter (SERT) inhibitors for the treatment of depression and anxiety” (Hoffmann-La Roche Inc., priority 2006, dated 2013).

One test addresses T1, human NK-1 receptor (Homo sapiens, UniProt P25103).
T1 construct: expressed in transfected cells; host or cells: CHO cells, Semliki virus expression system; membrane suspension
Description: hNK-1 binding assay ([3H]substance P displacement, transfected CHO cells). As to the method: The affinity of test compounds for the NK-1 receptor was evaluated at human NK-1 receptors in CHO cells transfected with the human NK-1 receptor using the Semliki virus expression system and radiolabelled with [^3H]substance P (final concentration 0.6 nM). Binding assays were performed in HEPES buffer (50 mM, pH 7.4) containing BSA (0.04%) leupeptin (8 μg/ml), MnCl2 (3 mM) and phosphoramidon (2 μM). Binding assays consisted of 250 μl of membrane suspension (1.25×10^5 cells/assay tube), 125 μl of buffer of displacing agent and 125 μl of [^3H]substance P. Displacement curves were determined with at least ten concentrations of the compound. The assay tubes were incubated for 60 min at room temperature after which time the tube contents were rapidly filtered under vacuum through GF/C filters presoaked for 60 min with PEI (0.3%) with 2×2 ml washes of HEPES buffer (50 mM, pH 7.4). The radioactivity retained on the filters was measured by scintillation counting. All assays were performed in duplicate in at least 2 separate experiments.
The inhibition dissociation constant (Ki) of each compound for NK1 is determined as described above for hSERT.

The next test deals with T2, recombinant human SERT (Homo sapiens, UniProt P31645).
T2 construct: expressed in transfected cells
Briefly: hSERT SPA binding assay ([3H]citalopram displacement, HEK-293 membranes). The method, then:
HEK-293 cells stably expressing recombinant human SERT are maintained with DMEM high glucose with 10% FBS, 300 μg/ml G418 and 2 mM L-Glutamine and incubated at 37° C. with 5% CO2. Cells are released from culture flasks using PBS for 1-2 min. The cells are subsequently centrifuged at 1000 g's for 5 min and resuspended in PBS prior to being used in the membrane preparation.
Cells are homogenized using a Polytron in 50 mM Tris (pH 7.4). Centrifuged at 48,000×g for 15 min, and the pellet resuspended in fresh buffer. After a second centrifugation, the pellet is re-homogenized and resuspended in fresh buffer. Typically, membrane portions are aliquoted in 3 mg/ml (w:v). and stored at 80° C.
A serial dilution of test compounds in 50 mM Tris-HCl, 120 mM NaCl, KCl 5 mM (pH 7.4) is made in a white Optiplate (Packard) (100 μl/well) and the radioligand ^3[H] Citalopram (Specific activity: 60-86 Ci/mmol, Final concentration: 1 nM) is added at 50 μl/well. Membrane and beads are prepared to a ratio of 5 μg:0.6 mg, with 0.6 mg PVT-WGA Amersham beads (Cat# RPQ0282V) added per well. 50 μl of the membrane/bead mixture is added to the assay plate for a final volume of 200 μl. The mixtures are allowed to stand at room temperature for one hour, and are then counted on a Packard TopCount.
The inhibition dissociation constant (Ki) of each compound is determined according to the method of Cheng-Prusoff.

The mark [1] stands for this setting: [3H]substance P 0.6 nM, CHO cells transfected with human NK-1 receptor, read-out: pKi hNK1 (converted).
Where [2] appears, read: read-out: pKi hSERT (converted).

Structures can show the parent of a compound that is named as a salt. Where two headings read alike, the source gives them in different places.

T1 sequence (P25103 whole entry): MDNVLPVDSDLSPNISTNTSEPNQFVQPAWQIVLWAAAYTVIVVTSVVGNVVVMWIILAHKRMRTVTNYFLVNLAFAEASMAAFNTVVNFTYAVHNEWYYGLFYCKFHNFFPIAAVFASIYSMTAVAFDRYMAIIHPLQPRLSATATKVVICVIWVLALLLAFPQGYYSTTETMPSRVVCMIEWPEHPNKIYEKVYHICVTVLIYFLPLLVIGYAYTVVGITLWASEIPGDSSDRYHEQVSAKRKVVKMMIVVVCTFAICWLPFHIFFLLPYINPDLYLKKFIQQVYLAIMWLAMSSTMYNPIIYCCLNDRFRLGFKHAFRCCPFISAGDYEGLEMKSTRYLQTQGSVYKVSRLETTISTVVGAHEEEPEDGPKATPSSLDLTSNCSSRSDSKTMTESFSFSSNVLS
T2 sequence (P31645 whole entry): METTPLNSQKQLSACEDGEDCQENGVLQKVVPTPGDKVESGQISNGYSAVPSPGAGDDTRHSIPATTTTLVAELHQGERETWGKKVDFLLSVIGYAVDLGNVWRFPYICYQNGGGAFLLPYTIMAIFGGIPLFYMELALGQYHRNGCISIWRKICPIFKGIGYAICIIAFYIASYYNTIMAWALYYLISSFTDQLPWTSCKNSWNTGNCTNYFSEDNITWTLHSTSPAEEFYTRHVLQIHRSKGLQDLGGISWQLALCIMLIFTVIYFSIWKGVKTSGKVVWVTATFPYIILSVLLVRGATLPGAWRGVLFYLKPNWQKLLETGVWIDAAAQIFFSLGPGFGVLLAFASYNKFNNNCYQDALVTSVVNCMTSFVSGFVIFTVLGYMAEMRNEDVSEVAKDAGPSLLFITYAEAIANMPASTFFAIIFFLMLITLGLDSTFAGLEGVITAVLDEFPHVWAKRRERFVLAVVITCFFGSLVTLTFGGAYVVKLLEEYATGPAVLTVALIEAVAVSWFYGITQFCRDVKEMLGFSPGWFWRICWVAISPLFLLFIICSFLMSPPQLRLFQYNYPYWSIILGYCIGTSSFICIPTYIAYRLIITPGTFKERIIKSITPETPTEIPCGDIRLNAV

Take `Fc1ccc([C@@H]2CCNCC2CNCc2cc(C(F)(F)F)cc(C(F)(F)F)c2)cc1` (stereo partly shown) [Example 1 of III, reference compound]: the Ki at human NK-1 receptor (setting [1]) is 12.6 nM; on recombinant human SERT (setting [2]), 724 nM.

As to `CS(=O)(=O)N(Cc1cc(C(F)(F)F)cc(C(F)(F)F)c1)C[C@@H]1CNCC[C@H]1c1ccc(F)cc1` [Example 4 of III, reference compound], the results for the Ki on human NK-1 receptor (setting [1]) and at recombinant human SERT (setting [2]) were 30.2 nM and 10000 nM, respectively. For `Fc1ccc([C@@H]2CCNC[C@H]2COCc2cc(C(F)(F)F)cc(C(F)(F)F)c2)cc1` [Example 1 of I, (−)-(3S,4R)-3-(3,5-Bis-trifluoromethyl-benzyloxymethyl)-4-(4-fluoro-phenyl)-piperidine hydrochloride], the results for the Ki on human NK-1 receptor and at recombinant human SERT (setting [2]) were 12.6 nM and 6.17 nM, respectively. For the molecule `O=S(=O)(Cc1cc(C(F)(F)F)cc(C(F)(F)F)c1)C[C@@H]1CNCC[C@H]1c1ccc(F)cc1` [Example 3 of II, reference compound], at human NK-1 receptor (setting [1]), the Ki is 13.5 nM.

As to `Fc1ccc([C@@H]2CCNC[C@H]2COCc2cccc(C(F)(F)F)c2)cc1` [Example 4 of I, (−)-(3S,4R)-4-(4-Fluoro-phenyl)-3-(3-trifluoromethyl-benzyloxymethyl)-piperidine hydrochloride], the Ki on human NK-1 receptor (setting [1]) was 148 nM; on recombinant human SERT, 17 nM. For `CC(=O)N(Cc1cc(C(F)(F)F)cc(C(F)(F)F)c1)C[C@@H]1CNCC[C@H]1c1ccc(F)cc1` [Example 3 of III, reference compound], the Ki was 13.8 nM at human NK-1 receptor (setting [1]) and 10000 nM at recombinant human SERT (setting [2]). On to `CN1CC[C@@H](c2ccc(F)cc2)[C@H](COCc2cc(C(F)(F)F)cc(C(F)(F)F)c2)C1` [Example 2 of I], for which the values for the Ki at human NK-1 receptor (setting [1]) and at recombinant human SERT (setting [2]) were 8.13 nM and 107 nM, respectively. On the same counts, the results for `Cc1ccccc1[C@@H]1CCNC[C@H]1COCc1cc(C(F)(F)F)cc(C(F)(F)F)c1` (relative stereo) [Example 6 of I, (−)-(trans)-3-(3,5-Bis-trifluoromethyl-benzyloxymethyl)-4-o-tolyl-piperidine hydrochloride] are 24 nM and 32.4 nM. As to `N#CCN1CC[C@@H](c2ccc(F)cc2)[C@H](COCc2cc(C(F)(F)F)cc(C(F)(F)F)c2)C1` [Example 3 of I, (−)-[(3S,4R)-3-(3,5-Bis-trifluoromethyl-benzyloxymethyl)-4-(4-fluoro-phenyl)-piperidin-1-yl]-acetonitrile], the Ki at human NK-1 receptor (setting [1]) is 21.4 nM; on recombinant human SERT (setting [2]), 141 nM. The corresponding values for `[O-][S+](Cc1cc(C(F)(F)F)cc(C(F)(F)F)c1)C[C@@H]1CNCC[C@H]1c1ccc(F)cc1` (stereo partly shown) [Example 2 of II, reference compound] are 63.1 nM and 3020 nM. With `CN(Cc1cc(C(F)(F)F)cc(C(F)(F)F)c1)C[C@@H]1CNCC[C@H]1c1ccc(F)cc1` [Example 2 of III, reference compound], the Ki on human NK-1 receptor (setting [1]) is 20.4 nM; at recombinant human SERT (setting [2]) it was 708 nM. On to `FC(F)(F)c1cc(COC[C@@H]2CNCC[C@H]2c2ccccc2)cc(C(F)(F)F)c1` (racemic) [Example 5 of I, (3SR,4RS)-3-(3,5-Bis-trifluoromethyl-benzyloxymethyl)-4-phenyl-piperidine hydrochloride], for which the Ki on human NK-1 receptor (setting [1]) was 8.91 nM; at recombinant human SERT (setting [2]) it was 11 nM. For `Cc1ccccc1C1=C(COCc2cc(C(F)(F)F)cc(C(F)(F)F)c2)CNCC1` [Example 7 of I, 5-(3,5-Bis-trifluoromethyl-benzyloxymethyl)-4-o-tolyl-1,2,3,6-tetrahydro-pyridine hydrochloride], the Ki on human NK-1 receptor is 3.16 nM; at recombinant human SERT (setting [2]), 32.4 nM.
